Our source for the EC50 values is US9296758B2, “2-quinolinyl-acetic acid derivatives as HIV antiviral compounds” (GILEAD SCIENCES, INC., priority 2010, dated 2016).

In the first test the test system is HIV-IIIb. The test is described as follows: Test A: Antiviral Assays in MT4 Cells. It counts as cell-based. The settings on record: Human immunodeficiency virus 1, IIIB, MT4, 120 h, MT-4 cells infected with HIV-IIIb (0.004 m.o.i.), 5 days of incubation, CellTiter-Glo chemiluminescence readout. As to the method:
Test A: Antiviral Assays in MT4 Cells For the antiviral assay utilizing MT-4 cells, 0.4 μL of 189X test concentration of 3-fold serially diluted compound in DMSO was added to 40 μL of cell growth medium (RPMI 1640, 10% FBS, 1% penicillin/Streptomycin, 1% L-Glutamine, 1% HEPES) in each well of 384-well assay plates (10 concentrations) in quadruplicate. 1 mL aliquots of 2×10e6 MT-4 cells are pre-infected for 1 and 3 hrs respectively, @ 37° C. with 25 μL (MT4) or of either cell growth medium (mock-infected) or a fresh 1:250 dilution of an HIV-IIIb concentrated ABI stock (0.004 m.o.i. for MT4 cells). Infected and uninfected cells are diluted in cell growth medium and 35 uL of 2000 (for MT4) cells is added to each well of the assay plates. Assay plates were then incubated in a 37° C. incubator. After 5 days of incubation, 25 μl of 2× concentrated CellTiter-Glo™ Reagent (catalog #G7573, Promega Biosciences, Inc., Madison, Wis.) was added to each well of the assay plate. Cell lysis was carried out by incubating at room temperature for 2-3 min and then chemiluminescence was read using the Envision reader (PerkinElmer).
For orientation: In ATP-based viability assays light output follows the ATP content of the culture.
With `Cc1cc2nc(CCC3CC3)ccc2c(-c2ccc(Cl)cc2)c1[C@H](OC(C)(C)C)C(=O)O` [Compound 39, (S)-2-tert-butoxy-2-(5-(4-chlorophenyl)-2-(2-cyclopropylethyl)-7-methylquinolin-6-yl)acetic acid], the concentration for a half-maximal effect (EC50) – broadly, the concentration giving half of the maximal effect – worked out at 11 nM. For `Cc1cc2nc(C(C)(C)C)ccc2c(-c2ccc3c4c(ccnc24)CCO3)c1[C@H](OC(C)(C)C)C(=O)O` [Compound 36, (S)-2-tert-butoxy-2-((R)-2-tert-butyl-5-(2,3-dihydropyrano[4,3,2-de]quinolin-7-yl)-7-methylquinolin-6-yl)acetic acid], the EC50 came to 20 nM. Turning to `CCC(C)c1ccc2c(-c3ccc4c5c(ccnc35)CCO4)c([C@H](OC(C)(C)C)C(=O)O)c(C)cc2n1` (stereo partly drawn) [Compound 49, (2S)-2-tert-Butoxy-2-((5R)-2-sec-butyl-5-(2,3-dihydropyrano[4,3,2-de]quinolin-7-yl)-7-methylquinolin-6-yl)acetic acid], the EC50 was 27 nM.

`Cc1cc2nc(C#Cc3ccccc3)ccc2c(-c2ccc(Cl)cc2)c1[C@H](OC(C)(C)C)C(=O)O` [Compound 37A, (S)-2-tert-butoxy-2-(5-(4-chlorophenyl)-7-methyl-2-(phenylethynyl)quinolin-6-yl)acetic acid]: a half-maximal effect (EC50) was put at 36 nM. Still for that read-out and setting: the figure for `Cc1cc2nc(-c3cncn3C)ccc2c(-c2ccc3c4c(ccnc24)CCO3)c1[C@H](OC(C)(C)C)C(=O)O` (atropisomer, axis not shown) [Compound 83, (S)-2-tert-Butoxy-2-((R)-5-(2,3-dihydropyrano[4,3,2-de]quinolin-7-yl)-7-methyl-2-(1-methyl-1H-imidazol-5-yl)quinolin-6-yl)acetic acid] is 42 nM. Compound `Cc1cc2ncccc2c(-c2ccc(Cl)cc2)c1[C@H](OC(C)(C)C)C(=O)O` [Compound 3L, (S)-2-tert-butoxy-2-(5-(4-chlorophenyl)-7-methylquinolin-6-yl)acetic acid] returned an EC50 of 1060 nM. Still for that read-out and setting: the figure for `Cc1cc2nc(N(C)CC(C)C)ccc2c(-c2ccc3c4c(ccnc24)CCO3)c1[C@H](OC(C)(C)C)C(=O)O` [Compound 92, (S)-2-tert-butoxy-2-((R)-5-(2,3-dihydropyrano[4,3,2-de]quinolin-7-yl)-2-(isobutyl(methyl)amino)-7-methylquinolin-6-yl)acetic acid] is 300 nM; for `Cc1cc2nc(CN(C)c3ccccc3)ccc2c(-c2ccc(Cl)cc2)c1[C@H](OC(C)(C)C)C(=O)O` [Compound 14, (S)-2-tert-Butoxy-2-(5-(4-chlorophenyl)-7-methyl-2-((methyl(phenyl)amino)methyl)quinolin-6-yl)acetic acid] it is 983 nM. In the case of `Cc1cc2nc(C(=O)O)ccc2c(-c2ccc(Cl)cc2)c1[C@H](OC(C)(C)C)C(=O)O` [Compound 24, (S)-6-(tert-Butoxy(carboxy)methyl)-5-(4-chlorophenyl)-7-methylquinoline-2-carboxylic acid], the concentration giving a half-maximal response (EC50) came out at 29800 nM. `Cc1cc2nc(-c3cccc(Cl)c3)ccc2c(-c2ccc3c4c(ccnc24)CCO3)c1[C@H](OC(C)(C)C)C(=O)O` (atropisomer, axis not shown) [Compound 55, (S)-2-tert-Butoxy-2-((R)-2-(3-chlorophenyl)-5-(2,3-dihydropyrano[4,3,2-de]quinolin-7-yl)-7-methylquinolin-6-yl)acetic acid] came in with an EC50 of 41 nM. The same measure, in the same setting: to `CNCc1ccc2c(-c3ccc(Cl)cc3)c([C@H](OC(C)(C)C)C(=O)O)c(C)cc2n1` [Compound 10, (S)-2-tert-Butoxy-2-(5-(4-chlorophenyl)-7-methyl-2-((methylamino)methyl)quinolin-6-yl)acetic acid] belongs 897 nM. As to `Cc1ccc2c(-c3ccc(-c4ccccc4)cc3)c(C(OC(C)(C)C)C(=O)O)c(C)cc2n1` (centres unmarked) [Compound 19, 2-(5-(Biphenyl-4-yl)-2,7-dimethylquinolin-6-yl)-2-tert-butoxyacetic acid], a half-maximal effect (EC50) was put at 53000 nM. The same measure, in the same setting: the figure for `Cc1cc2nc(NC3CC3)ccc2c(-c2ccc(Cl)cc2)c1[C@H](OC(C)(C)C)C(=O)O` [Compound 30, (S)-2-tert-butoxy-2-(5-(4-chlorophenyl)-2-(cyclopropylamino)-7-methylquinolin-6-yl)acetic acid] is 153 nM; for `Cc1cc2nc(N(C)C)ccc2c(-c2ccc3c4c(ccnc24)CCO3)c1[C@H](OC(C)(C)C)C(=O)O` [Compound 96, (S)-2-tert-butoxy-2-((R)-5-(2,3-dihydropyrano[4,3,2-de]quinolin-7-yl)-2-(dimethylamino)-7-methylquinolin-6-yl)acetic acid] it is 37 nM.

For the compound `Cc1cc2nc(-c3cn[nH]c3)ccc2c(-c2ccc3c4c(ccnc24)CCO3)c1[C@H](OC(C)(C)C)C(=O)O` (atropisomer, axis not shown) [Compound 78, (S)-2-tert-Butoxy-2-((R)-5-(2,3-dihydropyrano[4,3,2-de]quinolin-7-yl)-7-methyl-2-(1H-pyrazol-4-yl)quinolin-6-yl)acetic acid], the EC50 is 163 nM. Compared with the last compound, the EC50 is about 4.4-fold higher. The compound `Cc1cc2nc(-c3ccc(Cl)cc3)ccc2c(-c2ccc(Cl)cc2)c1[C@H](OC(C)(C)C)C(=O)O` [Compound 27, (S)-2-(2,5-bis(4-chlorophenyl)-7-methylquinolin-6-yl)-2-tert-butoxyacetic acid] showed an EC50 of 23 nM. The same measure, in the same setting: the figure for `Cc1cc2nc(N3CCC3)ccc2c(-c2ccc3c4c(ccnc24)CCO3)c1[C@H](OC(C)(C)C)C(=O)O` (atropisomer, axis not shown) [Compound 95, (S)-2-((R)-2-(azetidin-1-yl)-5-(2,3-dihydropyrano[4,3,2-de]quinolin-7-yl)-7-methylquinolin-6-yl)-2-tert-butoxyacetic acid] is 54 nM; for `Cc1cc2nc(-c3cccnc3)ccc2c(-c2ccc(Cl)cc2)c1[C@H](OC(C)(C)C)C(=O)O` [Compound 74, (S)-2-tert-butoxy-2-(5-(4-chlorophenyl)-7-methyl-2-(pyridin-3-yl)quinolin-6-yl)acetic acid] it is 92 nM; for `Cc1cc2nc(-c3ccnnc3)ccc2c(-c2ccc3c4c(ccnc24)CCO3)c1[C@H](OC(C)(C)C)C(=O)O` [Compound 88, (S)-2-tert-butoxy-2-((R)-5-(2,3-dihydropyrano[4,3,2-de]quinolin-7-yl)-7-methyl-2-(pyridazin-4-yl)quinolin-6-yl)acetic acid] it is 514 nM. In turn, `COc1ccc2c(-c3ccc(Cl)cc3)c([C@H](OC(C)(C)C)C(=O)O)c(C)cc2n1` [Compound 66, (S)-2-tert-butoxy-2-(5-(4-chlorophenyl)-2-methoxy-7-methylquinolin-6-yl)acetic acid] came in with an EC50 of 297 nM. Consider `Cc1cc2nc(-c3cncn3C)ccc2c(-c2ccc(Cl)cc2)c1[C@H](OC(C)(C)C)C(=O)O` [Compound 82, (S)-2-tert-Butoxy-2-(5-(4-chlorophenyl)-7-methyl-2-(1-methyl-1H-imidazol-5-yl)quinolin-6-yl)acetic acid], for which the EC50 amounted to 171 nM. Still for that read-out and setting: the figure for `Cc1cc2c(ccc(=O)n2-c2ccc(Cl)cc2)c(-c2ccc(Cl)cc2)c1[C@H](OC(C)(C)C)C(=O)O` [Compound 59, (S)-2-(1,5-Bis(4-chlorophenyl)-7-methyl-2-oxo-1,2-dihydroquinolin-6-yl)-2-tert-butoxyacetic acid] is 321 nM. The same measure, in the same setting: to `Cc1cc2c(ccc(=O)n2Cc2ccccc2)c(-c2ccc(Cl)cc2)c1[C@H](OC(C)(C)C)C(=O)O` [Compound 65B, (S)-2-(1-benzyl-5-(4-chlorophenyl)-7-methyl-2-oxo-1,2-dihydroquinolin-6-yl)-2-tert-butoxyacetic acid] belongs 55 nM. On the same count and under the same terms, the figure for `Cc1cc2nc(C3CC3)ccc2c(-c2ccc3c4c(ccnc24)CCO3)c1[C@H](OC(C)(C)C)C(=O)O` (atropisomer, axis not shown) [Compound 58, (S)-2-tert-Butoxy-2-((R)-2-cyclopropyl-5-(2,3-dihydropyrano[4,3,2-de]quinolin-7-yl)-7-methylquinolin-6-yl)acetic acid] is 14 nM. For `CNc1ccc2c(-c3ccc(Cl)cc3)c([C@H](OC(C)(C)C)C(=O)O)c(C)cc2n1` [Compound 31, (S)-2-tert-butoxy-2-(5-(4-chlorophenyl)-7-methyl-2-(methylamino)quinolin-6-yl)acetic acid], the midpoint of the response, the EC50, lay at 105 nM.

Still in this test, the particulars now being: MT-4 cells infected with HIV-IIIb (0.004 m.o.i.), 5 days of incubation, CellTiter-Glo chemiluminescence readout.
The compound `Cc1ccc2c(-c3ccc4c5c(ccnc35)CCO4)c([C@H](OC(C)(C)C)C(=O)O)c(C)cc2n1` [Compound 6D, (S)-2-tert-butoxy-2-((R)-5-(2,3-dihydropyrano[4,3,2-de]quinolin-7-yl)-2,7-dimethylquinolin-6-yl)acetic acid] registered an EC50 of 20 nM. The compound `Cc1ccc2c(-c3ccc(Cl)cc3Cl)c([C@H](OC(C)(C)C)C(=O)O)c(C)cc2n1` [Compound 5J, (S)-2-tert-butoxy-2-((S)-5-(2,4-dichlorophenyl)-2,7-dimethylquinolin-6-yl)acetic acid] yielded an EC50 of 19 nM. Compound `Cc1ccc2c(-c3ccc4c5c(cccc35)CCO4)c([C@H](OC(C)(C)C)C(=O)O)c(C)cc2n1` (single isomer, unassigned) [Compound 102B] returned an EC50 of 110 nM. Same read-out and setting: to `Cc1cc2nc(C(F)F)ccc2c(-c2ccc3c4c(ccnc24)CCO3)c1[C@H](OC(C)(C)C)C(=O)O` [Compound 99, (S)-2-tert-butoxy-2-((R)-2-(difluoromethyl)-5-(2,3-dihydropyrano[4,3,2-de]quinolin-7-yl)-7-methylquinolin-6-yl)acetic acid] belongs 12 nM.
